The values below come from the CheMixHub viscosity set.

“And” between values parts separate entries of the source, which are not always exact repeats. Equal values may be shown once. ± gives the uncertainty stated by the source.

Consider `C1CCCCCCC1`, for which the viscosity (298.15 K, 101 kPa) turned out to be 2.25 ± 0.022 mPa·s; the viscosity (303 K, 101 kPa) is 2.007 ± 0.015 mPa·s; the viscosity (303.15 K, 101 kPa) is listed as 2.031 ± 0.012 mPa·s; the viscosity (308.15 K, 101 kPa) is 1.818 ± 0.028 mPa·s (2×) and 1.818 ± 0.055 mPa·s; the viscosity (313.15 K, 101 kPa) is 1.649 ± 0.026 mPa·s and 1.692 ± 0.051 mPa·s.

`CC(=O)CC(C)(C)O` came in with a viscosity (298.15 K, 101 kPa) of 2.902 ± 0.076 mPa·s.

As to `CC(C)=CC(=O)C=C(C)C`, the viscosity (298.15 K, 101 kPa) came to 1.394 ± 0.017 mPa·s.

In the case of `CC(C)CC(C)O` (centres undefined), the viscosity (298.15 K, 101.33 kPa) is 3.823 ± 0.035 mPa·s and 3.823 ± 0.03 mPa·s.

Consider `CC1(C)OCC(CO)O1` (centres undefined), for which the viscosity by setting is: (298.15 K, 101 kPa) 9.643 ± 0.23 mPa·s; (308.15 K, 101 kPa) 6.834 ± 0.16 mPa·s; (318.15 K, 101 kPa) 5.076 ± 0.12 mPa·s.

Regarding `CCCCN(CCC#N)CCCC`, the viscosity (303.15 K, 100 kPa) is 2.5 mPa·s.

As for `CCN(CC)CCO`, the viscosity by setting is: (298.15 K, 101.33 kPa) 4.022 ± 0.091 mPa·s and 4.01 ± 0.062 mPa·s; (303.15 K, 101.3 kPa) 3.308 ± 0.66 mPa·s; (303.15 K, 101.33 kPa) 3.308 ± 0.076 mPa·s; (313.15 K, 101.3 kPa) 2.414 ± 0.48 mPa·s; (313.15 K, 101.33 kPa) 2.414 ± 0.056 mPa·s; (323.15 K, 101.3 kPa) 1.466 ± 0.29 mPa·s.

As for `CCN(CC)S(C)(=O)=O`, the viscosity (303.15 K, 101.33 kPa) is recorded as 40590 ± 5100 mPa·s.

By viscosity is commonly meant the internal friction of a fluid under shear. The low end stands for a thin fluid, the high end for a thick fluid.
